The values below come from paper PMC11249632, “Activation of the Calcium-Sensing Receptor by a Subfraction of Amino Acids Contained in Thyroid Drainage Fluid” (ACS Pharmacology & Translational Science, 2024).

Assay [1] deals with T1, calcium-sensing receptor (Homo sapiens, UniProt P41180, R990G).
T1 sequence (P41180 20-1078 R990G): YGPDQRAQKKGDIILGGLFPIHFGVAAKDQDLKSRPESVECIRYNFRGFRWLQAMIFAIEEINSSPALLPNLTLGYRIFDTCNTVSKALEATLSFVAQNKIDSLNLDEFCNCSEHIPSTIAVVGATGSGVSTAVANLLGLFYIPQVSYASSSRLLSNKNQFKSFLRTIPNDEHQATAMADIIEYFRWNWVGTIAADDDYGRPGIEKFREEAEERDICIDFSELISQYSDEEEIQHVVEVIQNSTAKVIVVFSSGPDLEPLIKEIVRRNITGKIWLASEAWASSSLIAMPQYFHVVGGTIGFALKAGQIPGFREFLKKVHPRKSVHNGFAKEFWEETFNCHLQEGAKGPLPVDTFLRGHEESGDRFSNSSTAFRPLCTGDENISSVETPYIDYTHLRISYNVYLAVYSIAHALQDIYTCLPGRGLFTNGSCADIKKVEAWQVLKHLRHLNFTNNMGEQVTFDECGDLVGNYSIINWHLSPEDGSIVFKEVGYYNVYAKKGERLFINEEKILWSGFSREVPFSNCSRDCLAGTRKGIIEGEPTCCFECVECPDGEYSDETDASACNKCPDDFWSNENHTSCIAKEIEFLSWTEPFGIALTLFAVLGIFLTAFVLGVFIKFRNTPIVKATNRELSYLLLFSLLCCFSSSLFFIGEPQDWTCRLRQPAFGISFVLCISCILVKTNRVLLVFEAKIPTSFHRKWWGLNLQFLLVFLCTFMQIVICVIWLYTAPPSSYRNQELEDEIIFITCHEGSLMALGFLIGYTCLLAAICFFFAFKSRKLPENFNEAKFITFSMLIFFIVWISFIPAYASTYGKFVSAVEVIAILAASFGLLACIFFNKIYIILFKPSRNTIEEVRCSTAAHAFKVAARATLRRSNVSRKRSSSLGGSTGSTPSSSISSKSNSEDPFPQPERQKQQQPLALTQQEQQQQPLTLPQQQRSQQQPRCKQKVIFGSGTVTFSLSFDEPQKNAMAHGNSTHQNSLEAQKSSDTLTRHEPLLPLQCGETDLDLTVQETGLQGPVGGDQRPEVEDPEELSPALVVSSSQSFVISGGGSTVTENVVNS
Nature of the assay: Fura-2 intracellular calcium mobilization, receptor-expressing vs nontransfected HEK293 cells. The assay is classed as cell-based. The arrangement: gene CASR; recombinant human receptor stably expressed in HEK293 cells. Background: Calcium flux is commonly read through the fluorescence of an indicator in the cells.

For assay [2], the target named is T1, calcium-sensing receptor. Nature of the assay: Fura-2 intracellular calcium mobilization, receptor-expressing vs nontransfected HEK293 cells, blocked by NPS-2143. The assay is classed as cell-based. Further details: gene CASR; recombinant human receptor stably expressed in HEK293 cells.
For assay [3], the target named is T1, calcium-sensing receptor. Further details: gene CASR.
Assay [4] concerns the target T1, calcium-sensing receptor. Nature of the assay: Fura-2 intracellular calcium mobilization in receptor-expressing HEK293 cells; inhibition of Ca2+-mediated activation at neutral pH (IC50 […] at pH ~[…]). The assay is classed as cell-based. The arrangement: gene CASR; recombinant human receptor stably expressed in HEK293 cells.

`N[C@@H](CC(=O)O)C(=O)O` [L-aspartate]: the “Fura-2 intracellular calcium mobilization, receptor-expressing vs nontransfected” value in assay [1] was “Concentration-dependent receptor activation by L-glutamate (A) and L-aspartate (B)”.

For the molecule `N[C@@H](CCC(=O)O)C(=O)O` [L-glutamate], the “Fura-2 intracellular calcium mobilization, receptor-expressing vs nontransfected” value in assay [2] is reported as ~ 5 mM. In the case of `N[C@@H](CCC(=O)N[C@@H](CS)C(=O)NCC(=O)O)C(=O)O` [glutathione], the “Fura-2 intracellular calcium mobilization in receptor-expressing HEK293 cells” value in assay [3] is recorded as over 3 mM. As usually defined, the IC50 is the point on the concentration scale where inhibition reaches its midpoint. Turning to `CC(C)(Cc1ccc2ccccc2c1)NC[C@@H](O)COc1cccc(Cl)c1C#N` [NPS-2143, 2-chloro-6-[(2R)-2-hydroxy-3-[(2-methyl-1-naphthalen-2-ylpropan-2-yl)amino]propoxy]benzonitrile], in assay [4], the IC50 was about 500 nM.
